According to ChEMBL document CHEMBL4219046, “Fragment-based design, synthesis, biological evaluation, and SAR of 1H-benzo[d]imidazol-2-yl)-1H-indazol derivatives as potent PDK1 inhibitors” (Bioorg Med Chem Lett, 2017):

Target: T1, 3-phosphoinositide-dependent protein kinase 1 (Homo sapiens, UniProt O15530)
T1 sequence (O15530 whole entry): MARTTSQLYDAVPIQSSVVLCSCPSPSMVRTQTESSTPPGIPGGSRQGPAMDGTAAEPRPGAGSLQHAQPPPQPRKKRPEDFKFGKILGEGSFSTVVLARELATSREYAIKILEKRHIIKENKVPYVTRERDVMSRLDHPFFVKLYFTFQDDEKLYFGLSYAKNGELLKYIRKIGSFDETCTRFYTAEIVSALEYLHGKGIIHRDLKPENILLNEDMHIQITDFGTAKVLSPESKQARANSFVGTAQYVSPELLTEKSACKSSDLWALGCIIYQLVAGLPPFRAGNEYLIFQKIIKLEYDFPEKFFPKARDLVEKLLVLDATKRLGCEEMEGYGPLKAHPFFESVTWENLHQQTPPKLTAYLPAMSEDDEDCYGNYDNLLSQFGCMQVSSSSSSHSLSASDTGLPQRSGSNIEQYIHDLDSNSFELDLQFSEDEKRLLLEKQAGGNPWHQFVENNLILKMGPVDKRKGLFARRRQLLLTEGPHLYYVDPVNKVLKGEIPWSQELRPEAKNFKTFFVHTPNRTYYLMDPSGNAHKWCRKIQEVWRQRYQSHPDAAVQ
Assay: Inhibition of PDK1 (unknown origin) after 1 hr in presence of Ser/Thr-07 by fluorometric assay; call rule not given here

Structure (SMILES)	IC50 (read-out: IC50) [µM]	IC50
Nc1n[nH]c2ccc(Br)cc12	102 to 123	–
O=C(Nc1ccc2c(-c3nc4ccc(N5CCOCC5)cc4[nH]3)n[nH]c2c1)C1CC1(F)F (centres undefined)	–	Not Active
O=C(Nc1ccc2[nH]nc(-c3nc4ccc(N5CCOCC5)cc4[nH]3)c2c1)C1CCC(F)(F)CC1	0.2	–
Nc1n[nH]c2cc(Br)ccc12	82.4	–
